Measured values: patent US20200071361A1, “ENGINEERED ANTIMICROBIAL AMPHIPHILIC PEPTIDES AND METHODS OF USE” (priority 2017, published 2020)
Values after ≈ are worked out from the molar mass of the structure shown.

Columns and labels:
[1] = tested on: Acinetobacter spp. isolates (n = 104); assay: Broth microdilution MIC, clinical isolate panel; assay type: cell-based; settings: Acinetobacter spp. (n = 104)
Description: (§1) Comparator antibiotics were supplied by Micromyx, and stock solutions were prepared on the first day of testing using solvents recommended by CLSI (1). Stock solutions of all compounds were made at 40× the final testing concentration and stored at −80° C. prior to testing. Information regarding compound source, catalog and lot number, testing concentrations and drug diluent for the comparators and test agent are detailed below in Table 3.
(§2) The test organisms evaluated in this study consisted of clinical isolates from the Micromyx Repository and reference isolates from the American Type Culture Collection (ATCC; Manassas, Va.). The clinical isolates were obtained from USA hospitals. Upon initial receipt at Micromyx, the organisms were sub-cultured onto an appropriate agar medium. Following incubation, colonies were harvested from these plates and cell suspensions prepared and frozen at −80° C. with a cryoprotectant. Prior to testing, the isolates were streaked from frozen vials onto Trypticase Soy Agar with 5% sheep blood (Becton Dickenson [BD]; Sparks, Md.; Lot Nos. 7173618, 7166759, 7208688, 72144895, 7228505 and Remel Lenexa, Kans. Lot No. 212574). Plates were incubated at 35° C. overnight.
(§3) Mueller Hinton II broth (MHB II; BD; Lot Nos. 6258541 and 7143896) was used for MIC testing of aerobic organisms.
(§4) MIC values were determined using a broth microdilution procedure described by CLSI (1, 3). Automated liquid handlers (Multidrop 384, Labsystems, Helsinki, Finland; Biomek 2000 and Biomek FX, Beckman Coulter, Fullerton Calif.) were used to conduct serial dilutions and liquid transfers.
(§5) To prepare the drug mother plates, which would provide the serial drug dilutions for the replicate daughter plates, the wells of columns 2-12 of standard 96-well microdilution plates (Costar 3795) were filled with 150 μl of the designated diluent for each row of drug. The test articles and comparator compounds (300 μl at 40× the highest concentration to be tested) were dispensed into the appropriate wells in column 1. The Biomek 2000 was then used to make 2-fold serial dilutions in the mother plates from column 1 through column 11. The wells of Column 12 contained no drug and served as the organism growth control wells for the assay.
(§6) The daughter plates were loaded with 185 μL per well of MHB II using the Multidrop 384. The daughter plates were completed on the Biomek FX instrument which transferred 5 µL of drug solution from each well of a mother plate to the corresponding well of each daughter plate in a single step. A standardized inoculum of each test organism was prepared per CLSI methods (1). The inoculum for each organism was dispensed into sterile reservoirs divided by length (Beckman Coulter), and the Biomek 2000 was used to inoculate the plates. Daughter plates were placed on the Biomek 2000 work surface in reverse orientation so that inoculation took place from low to high drug concentration.
(§7) Plates were stacked 3-4 high, covered with a lid on the top plate, placed in plastic bags, and incubated at 35° C. for 16 to 20 hrs. Following incubation, the microplates were removed from the incubator and viewed from the bottom using a plate viewer. […] The MIC was read and recorded as the lowest concentration of drug that inhibited visible growth of the organism.
(§8) Clinical breakpoints to determine percent resistance within a given organism group were obtained from CLSI (3), with the exception of colistin for K. pneumoniae, Enterobacter spp., and E. coli, which are only available from EUCAST.

[2] = tested on: Escherichia coli isolates (n = 101); assay: Broth microdilution MIC, clinical isolate panel; assay type: cell-based; settings: Escherichia coli (n = 101)
Description: as §1, §2, §3, §4, §5, §6, §7, §8

[3] = tested on: Klebsiella pneumoniae isolates (n = 101); assay: Broth microdilution MIC, clinical isolate panel; assay type: cell-based; settings: Klebsiella pneumoniae (n = 101)
Description: as §1, §2, §3, §4, §5, §6, §7, §8

[4] = tested on: Pseudomonas aeruginosa isolates (n = 109); assay: Broth microdilution MIC, clinical isolate panel; assay type: cell-based; settings: for % R (percent of isolates resistant, clinical breakpoints): Pseudomonas aeruginosa (n = 109)
Description: as §1, §2, §3, §4, §5, §6, §7, §8

[5] = tested on: Enterococcus faecium ATCC 51559 (VRE); assay: Broth microdilution MIC (Table 2); assay type: cell-based
Description: (§9) Each peptide was formulated in PBS buffer prior to testing. Peptides of SEQ ID NO:5 and SEQ ID NO:8 were brought up in 100% DMSO with 0.002% polysorbate-80 at 1.28 mg/mL (40× the highest final test concentration of 32 mcg/mL). Final test concentration of DMSO was 2.5% in the assay at the first dilution for those two compounds.
(§10) Mueller Hinton II broth (MHB II; BD; Lot Nos. 6258541 and 7143896) was used for MIC testing of aerobic organisms. 0.002% polysorbate 80 (P80) was added to the test medium.
as §4
as §5, with “serial peptide” for “serial drug”, “of peptide.” for “of drug.”
as §6, with “5 uL” for “5 µL”, “of peptide” for “of drug”, “CLSI methods.” for “CLSI methods (1).”, “concentration. The plates were then inoculated with 10 μL of the inoculum resulting in a final cell density of approximately 5×10^5 CFU/mL, per well.” for “concentration.”
as §7, with “peptide” for “drug”

[6] = tested on: Streptococcus pneumoniae ATCC 49619 (QC); assay: Broth microdilution MIC (Table 2); assay type: cell-based
Description: as §9, §10, §4
as §5, with “serial peptide” for “serial drug”, “of peptide.” for “of drug.”
as §6, with “5 uL” for “5 µL”, “of peptide” for “of drug”, “CLSI methods.” for “CLSI methods (1).”, “concentration. The plates were then inoculated with 10 μL of the inoculum resulting in a final cell density of approximately 5×10^5 CFU/mL, per well.” for “concentration.”
as §7, with “peptide” for “drug”

[7] = tested on: Staphylococcus aureus ATCC 29213 (MSSA; QC); assay: Broth microdilution MIC (Table 2); assay type: cell-based
Description: as §9, §10, §4
as §5, with “serial peptide” for “serial drug”, “of peptide.” for “of drug.”
as §6, with “5 uL” for “5 µL”, “of peptide” for “of drug”, “CLSI methods.” for “CLSI methods (1).”, “concentration. The plates were then inoculated with 10 μL of the inoculum resulting in a final cell density of approximately 5×10^5 CFU/mL, per well.” for “concentration.”
as §7, with “peptide” for “drug”

[8] = tested on: Staphylococcus aureus ATCC 43300 (MRSA); assay: Broth microdilution MIC (Table 2); assay type: cell-based
Description: as §9, §10, §4
as §5, with “serial peptide” for “serial drug”, “of peptide.” for “of drug.”
as §6, with “5 uL” for “5 µL”, “of peptide” for “of drug”, “CLSI methods.” for “CLSI methods (1).”, “concentration. The plates were then inoculated with 10 μL of the inoculum resulting in a final cell density of approximately 5×10^5 CFU/mL, per well.” for “concentration.”
as §7, with “peptide” for “drug”

[9] = tested on: Staphylococcus aureus NRS382 (USA100; HA-MRSA); assay: Broth microdilution MIC (Table 2); assay type: cell-based
Description: as §9, §10, §4
as §5, with “serial peptide” for “serial drug”, “of peptide.” for “of drug.”
as §6, with “5 uL” for “5 µL”, “of peptide” for “of drug”, “CLSI methods.” for “CLSI methods (1).”, “concentration. The plates were then inoculated with 10 μL of the inoculum resulting in a final cell density of approximately 5×10^5 CFU/mL, per well.” for “concentration.”
as §7, with “peptide” for “drug”

[10] = tested on: Streptococcus agalactiae ATCC 13813; assay: Broth microdilution MIC (Table 2); assay type: cell-based; settings: ATCC13813
Description: as §9, §10, §4
as §5, with “serial peptide” for “serial drug”, “of peptide.” for “of drug.”
as §6, with “5 uL” for “5 µL”, “of peptide” for “of drug”, “CLSI methods.” for “CLSI methods (1).”, “concentration. The plates were then inoculated with 10 μL of the inoculum resulting in a final cell density of approximately 5×10^5 CFU/mL, per well.” for “concentration.”
as §7, with “peptide” for “drug”

[11] = tested on: Streptococcus pyogenes ATCC 49399; assay: Broth microdilution MIC (Table 2); assay type: cell-based
Description: as §9, §10, §4
as §5, with “serial peptide” for “serial drug”, “of peptide.” for “of drug.”
as §6, with “5 uL” for “5 µL”, “of peptide” for “of drug”, “CLSI methods.” for “CLSI methods (1).”, “concentration. The plates were then inoculated with 10 μL of the inoculum resulting in a final cell density of approximately 5×10^5 CFU/mL, per well.” for “concentration.”
as §7, with “peptide” for “drug”

[12] = tested on: Enterococcus faecalis ATCC 29212 (VSE; QC); assay: Broth microdilution MIC (Table 2); assay type: cell-based
Description: as §9, §10, §4
as §5, with “serial peptide” for “serial drug”, “of peptide.” for “of drug.”
as §6, with “5 uL” for “5 µL”, “of peptide” for “of drug”, “CLSI methods.” for “CLSI methods (1).”, “concentration. The plates were then inoculated with 10 μL of the inoculum resulting in a final cell density of approximately 5×10^5 CFU/mL, per well.” for “concentration.”
as §7, with “peptide” for “drug”

[13] = tested on: Acinetobacter baumannii ATCC 19606 (non-MDR); assay: Broth microdilution MIC (Table 2); assay type: cell-based
Description: as §9, §10, §4
as §5, with “serial peptide” for “serial drug”, “of peptide.” for “of drug.”
as §6, with “5 uL” for “5 µL”, “of peptide” for “of drug”, “CLSI methods.” for “CLSI methods (1).”, “concentration. The plates were then inoculated with 10 μL of the inoculum resulting in a final cell density of approximately 5×10^5 CFU/mL, per well.” for “concentration.”
as §7, with “peptide” for “drug”

[14] = tested on: Acinetobacter baumannii ATCC BAA-1797 (MDR); assay: Broth microdilution MIC (Table 2); assay type: cell-based
Description: as §9, §10, §4
as §5, with “serial peptide” for “serial drug”, “of peptide.” for “of drug.”
as §6, with “5 uL” for “5 µL”, “of peptide” for “of drug”, “CLSI methods.” for “CLSI methods (1).”, “concentration. The plates were then inoculated with 10 μL of the inoculum resulting in a final cell density of approximately 5×10^5 CFU/mL, per well.” for “concentration.”
as §7, with “peptide” for “drug”

[15] = tested on: Enterococcus faecalis ATCC 700802 (V583 VRE); assay: Broth microdilution MIC (Table 2); assay type: cell-based
Description: as §9, §10, §4
as §5, with “serial peptide” for “serial drug”, “of peptide.” for “of drug.”
as §6, with “5 uL” for “5 µL”, “of peptide” for “of drug”, “CLSI methods.” for “CLSI methods (1).”, “concentration. The plates were then inoculated with 10 μL of the inoculum resulting in a final cell density of approximately 5×10^5 CFU/mL, per well.” for “concentration.”
as §7, with “peptide” for “drug”

[16] = tested on: Pseudomonas aeruginosa ATCC 27853 (non-MDR; QC); assay: Broth microdilution MIC (Table 2); assay type: cell-based
Description: as §9, §10, §4
as §5, with “serial peptide” for “serial drug”, “of peptide.” for “of drug.”
as §6, with “5 uL” for “5 µL”, “of peptide” for “of drug”, “CLSI methods.” for “CLSI methods (1).”, “concentration. The plates were then inoculated with 10 μL of the inoculum resulting in a final cell density of approximately 5×10^5 CFU/mL, per well.” for “concentration.”
as §7, with “peptide” for “drug”

[17] = tested on: Enterobacter spp. isolates (n = 102); assay: Broth microdilution MIC, clinical isolate panel; assay type: cell-based, Enterobacter aerogenes and E. cloacae; settings: Enterobacter spp. (n = 102)
Description: as §1, §2, §3, §4, §5
The daughter plates were loaded with 185 μL per well of MHB II using the Multidrop 384. The daughter plates were completed on the Biomek FX instrument which transferred 5 µL of drug solution from each well of a mother plate to the corresponding well of each daughter plate in a single step. […]
Plates were stacked 3-4 high, covered with a lid on the top plate, placed in plastic bags, and incubated at 35° C. for 16 to 20 hrs. […] The MIC was read and recorded as the lowest concentration of drug that inhibited visible growth of the organism. […]

Colistin was tested, and the “% R (percent of isolates resistant, clinical breakpoints)” value [1] was 20.2%, the “% R (percent of isolates resistant, clinical breakpoints)” value [2] was 0% and the “% R (percent of isolates resistant, clinical breakpoints)” value [3] was 27.7%. For the same compound, the “% R (percent of isolates resistant, clinical breakpoints)” value [4] was 7.3%, the MIC [5] was >32 µg/mL and the MIC [6] was >32 µg/mL. For the same compound, the MIC [7] was >32 µg/mL, the MIC [8] was >32 µg/mL and the MIC [9] was >32 µg/mL. The MIC [10] was >32 µg/mL, the MIC [11] was >32 µg/mL and the MIC [12] was >32 µg/mL. The MIC [13] was 0.25 µg/mL, the MIC [14] was 0.25 µg/mL and the MIC [15] was >32 µg/mL. The MIC [16] was 0.25 µg/mL and the “% R (percent of isolates resistant, clinical breakpoints)” value [17] was 5.8%.
With NC[C@H]1O[C@H](O[C@H]2[C@H](O)[C@@H](O[C@H]3O[C@H](CO)[C@@H](O)[C@H](N)[C@H]3O)[C@H](N)C[C@@H]2N)[C@H](N)C[C@@H]1O [Tobramycin] the “% R (percent of isolates resistant, clinical breakpoints)” value [1] was 49.0%, the MIC50 [1] was 8 µg/mL (≈ 17.1 µM) and the MIC90 [1] was > 64 µg/mL. The MIC ([1]; read-out: Mode (MIC)) was > 64 µg/mL, the MIC90 [2] was 32 µg/mL (≈ 68.4 µM) and the “% R (percent of isolates resistant, clinical breakpoints)” value [3] was “over 60%”. The MIC50 [3] was 16 µg/mL (≈ 34.2 µM), the MIC90 [3] was 64 µg/mL (≈ 137 µM) and the MIC ([3]; read-out: Mode (MIC)) was 16 µg/mL (≈ 34.2 µM). The MIC90 ([4]; Pseudomonas aeruginosa) was 4 µg/mL (≈ 8.56 µM), the “% R (percent of isolates resistant, clinical breakpoints)” value [4] was 7.4% and the “% R (percent of isolates resistant, clinical breakpoints)” value [17] was 3.9%.
